The values below come from patent US10611740B2, “Aryl dihydro-2H-benzo[b][1,4]oxazine sulfonamide and related compounds for use as agonists of RORγ and the treatment of disease” (Lycera Corporation, priority 2015, dated 2020).

The structures appear in SMILES notation. A value given as a limit tells only on which side of the number the result lay.

Test [1] deals with T1, RORγ-LBD (Homo sapiens, UniProt P51449).
T1 construct: made in house; host or cells: SF9 cells (baculovirus)
T1 sequence (P51449 269-508 limits assumed): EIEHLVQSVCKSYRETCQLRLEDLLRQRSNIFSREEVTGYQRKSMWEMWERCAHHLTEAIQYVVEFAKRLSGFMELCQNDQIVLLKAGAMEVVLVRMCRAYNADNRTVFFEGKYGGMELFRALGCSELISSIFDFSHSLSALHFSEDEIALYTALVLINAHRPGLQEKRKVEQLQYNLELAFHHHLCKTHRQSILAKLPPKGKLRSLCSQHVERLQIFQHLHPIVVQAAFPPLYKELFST
In words: RORγ-Ligand Binding Domain (LBD) TR-FRET Assay.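 On TR-FRET Assay Max Response: 665/615 nm ratio relative to signal without ursolic acid or compound set at 100.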 In kind it is biochemical. An outline of the steps:
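SF9 lysate containing His-RORγ-LBD, ~3 nM final; coactivator peptide biotin-SRC1 LXXLL, 200 nM final; ursolic acid 2 μM final; DMSO 1% final; Tris pH 7.0 buffer with KCl, EDTA, DTT, BSA. TR-FRET format.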
(In general: In TR-FRET formats the signal depends on donor and acceptor labels being close together.)

Test [2] concerns the target T2, Gal4-RORγ-LBD (Homo sapiens, UniProt P51449).
T2 construct: expressed in transfected cells; host or cells: HEK-293 cells (pcDNA3.1neo plasmid)
T2 sequence (P51449 269-508 limits assumed): T1 sequence (P51449 269-508 limits assumed)
As to the kind of experiment: Gal4-RORγ Luciferase Reporter Assay in HEK-293T Cells. The class given is cell-based. Conditions: HEK-293 cells. An outline of the steps:
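In transfected HEK-293 cells (Gal4-RORγ-LBD, Gal4-luciferase), test agents with 2 μM ursolic acid were incubated overnight at 37 °C before luminescent detection. Values are relative to the ursolic-acid-free, compound-free signal (100).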

The mark [3] stands for this setting: luciferase reporter, with 2 μM ursolic acid.

Turning to `O=C(NC[C@H]1CN(S(=O)(=O)c2cccc(C(F)(F)F)c2)c2cc(-c3cc(F)ccc3F)ccc2O1)c1cc[nH]n1` [Compound 30AD, (S)-N-((6-(2,5-difluorophenyl)-4-((3-(trifluoromethyl)phenyl)-sulfonyl)-3,4-dihydro-2H-benzo[b][1,4]oxazin-2-yl)methyl)-1H-pyrazole-3-carboxamide], in test [1], the EC50 (as a rule, the concentration that produces a half-maximal response) was below 500 nM and the “TR-FRET Assay Max Response” value is recorded as “**** (The symbol “****” indicates a value greater than 200)”. Besides, in test [2] (setting [3]), the EC50 was below 500 nM and the “Gal4-RORγ Assay Max Response” value is on record as “* (The symbol “*” indicates a value in the range of 25 to 90)”.

On to `Cc1ccc(-c2ccc3c(c2)N(S(=O)(=O)c2cccc(C(F)(F)F)c2)C[C@H](CCC(=O)O)O3)cc1` [Compound 2X, (S)-3-(6-(p-tolyl)-4-((3-(trifluoromethyl)phenyl)-sulfonyl)-3,4-dihydro-2H-benzo[b][1,4]oxazin-2-yl)propanoic acid], for which, in test [1], the EC50 is below 500 nM and the “TR-FRET Assay Max Response” value was “**** (The symbol “****” indicates a value greater than 200)”. In addition, in test [2] (setting [3]), the EC50 is below 500 nM and the “Gal4-RORγ Assay Max Response” value is “** (The symbol “**” indicates a value in the range of greater than 90 to 150)”.

Turning to `O=C(O)C1(C[C@H]2CN(S(=O)(=O)c3cccc(C(F)(F)F)c3)c3cc(-c4cc(F)cc(Cl)c4)ccc3O2)CCOCC1` [Compound 78E, (S)-4-((6-(3-chloro-5-fluoro-phenyl)-4-((3-(trifluoromethyl)-phenyl)sulfonyl)-3,4-dihydro-2H-benzo[b][1,4]oxazin-2-yl)methyl)tetrahydro-2H-pyran-4-carboxylic acid], in test [1], the EC50 is below 500 nM and the “TR-FRET Assay Max Response” value is “** (The symbol “**” indicates a value in the range of greater than 90 to 150)”. For the same molecule, in test [2] (2 μM ursolic acid), the EC50 was below 500 nM and the “Gal4-RORγ Assay Max Response” value is given as “** (The symbol “**” indicates a value in the range of greater than 90 to 150)”.

For the molecule `CC[C@@H](C[C@H]1CN(S(=O)(=O)c2cccc(C(F)(F)F)c2)c2cc(-c3cc(F)cc(F)c3Cl)ccc2O1)C(=O)O` [Compound 46G, (S)-2-(((S)-6-(2-chloro-3,5-difluorophenyl)-4-((3-(trifluoro-methyl)phenyl)sulfonyl)-3,4-dihydro-2H-benzo[b][1,4]oxazin-2-yl)methyl)butanoic acid], in test [1], the EC50 is below 500 nM and the “TR-FRET Assay Max Response” value is reported as “** (The symbol “**” indicates a value in the range of greater than 90 to 150)”. In test [2] (2 μM ursolic acid), the EC50 was below 500 nM and the “Gal4-RORγ Assay Max Response” value is “** (The symbol “**” indicates a value in the range of greater than 90 to 150)”.

For `CC(C)(F)C(=O)NC[C@H]1CN(S(=O)(=O)c2cccc(C(F)(F)F)c2)c2cc(-c3cc(F)cc(OC(F)F)c3)ccc2O1` [Compound 30DG, (S)-N-((6-(3-(difluoromethoxy)-5-fluorophenyl)-4-((3-(trifluoro-methyl)phenyl)sulfonyl)-3,4-dihydro-2H-benzo[b][1,4]-oxazin-2-yl)methyl)-2-fluoro-2-methylpropanamide], in test [1], the EC50 is below 500 nM and the “TR-FRET Assay Max Response” value is recorded as “*** (The symbol “***” indicates a value in the range of greater than 150 to 200)”. For the same molecule, in test [2] (2 μM ursolic acid), the EC50 lay in the range of 500 to 5000 nM and the “Gal4-RORγ Assay Max Response” value is recorded as “* (The symbol “*” indicates a value in the range of 25 to 90)”.

Take `CC(C)c1cccc(S(=O)(=O)N2C[C@H](CNC(=O)C(C)(C)O)Oc3ccc(-c4cccc(N(C)C)n4)cc32)c1` [Compound 30J, (S)-N-((6-(6-(dimethylamino)-pyridin-2-yl)-4-((3-isopropylphenyl)sulfonyl)-3,4-dihydro-2H-benzo[b][1,4]oxazin-2-yl)methyl)-2-hydroxy-2-methylpropanamide]: in test [1], the EC50 is below 500 nM and the “TR-FRET Assay Max Response” value is “**** (The symbol “****” indicates a value greater than 200)”. Also, in test [2] (setting [3]), the EC50 was below 500 nM and the “Gal4-RORγ Assay Max Response” value is on record as “* (The symbol “*” indicates a value in the range of 25 to 90)”.

In the case of `Cn1ccc(-c2ccc3c(c2)N(S(=O)(=O)c2cccc(C(F)(F)F)c2)C[C@H](CCC(=O)O)O3)n1` [Compound 4W, (S)-3-(6-(1-methyl-1H-pyrazol-3-yl)-4-((3-(trifluoromethyl)-phenyl)sulfonyl)-3,4-dihydro-2H-benzo[b][1,4]oxazin-2-yl)propanoic acid], in test [1], the EC50 was 500 to 5000 nM and the “TR-FRET Assay Max Response” value is given as “**** (The symbol “****” indicates a value greater than 200)”. In test [2] (setting [3]), the EC50 lay within 500 to 5000 nM and the “Gal4-RORγ Assay Max Response” value is given as “** (The symbol “**” indicates a value in the range of greater than 90 to 150)”.

Consider `CCc1cccc(-c2ccc3c(c2)N(S(=O)(=O)c2cccc(C(F)(F)F)c2)C[C@H](CCC(=O)O)O3)c1` [Compound 4AH, (S)-3-(6-(3-ethylphenyl)-4-((3-(trifluoromethyl)phenyl)-sulfonyl)-3,4-dihydro-2H-benzo[b][1,4]oxazin-2-yl)propanoic acid], for which, in test [1], the EC50 is below 500 nM and the “TR-FRET Assay Max Response” value was “**** (The symbol “****” indicates a value greater than 200)”. Further, in test [2] (setting [3]), the EC50 is below 500 nM and the “Gal4-RORγ Assay Max Response” value was “** (The symbol “**” indicates a value in the range of greater than 90 to 150)”.

For the molecule `CC(C)(O)C(=O)NC[C@H]1CN(S(=O)(=O)c2cccc(OC(F)F)c2)c2cc(-c3cc(F)ccc3F)ccc2O1` [Compound 30R, (S)-N-((4-((3-(difluoromethoxy)-phenyl)sulfonyl)-6-(2,5-difluorophenyl)-3,4-dihydro-2H-benzo[b][1,4]oxazin-2-yl)methyl)-2-hydroxy-2-methylpropanamide], in test [1], the EC50 was below 500 nM and the “TR-FRET Assay Max Response” value is on record as “**** (The symbol “****” indicates a value greater than 200)”. In test [2] (setting [3]), the EC50 was below 500 nM and the “Gal4-RORγ Assay Max Response” value is listed as “** (The symbol “**” indicates a value in the range of greater than 90 to 150)”.

Regarding `O=C(O)CC[C@H]1CN(S(=O)(=O)c2cccc(C(F)(F)F)c2)c2cc(-c3cc(Cl)ccc3Cl)ccc2O1` [Compound 2AM, (S)-3-(6-(2,5-dichlorophenyl)-4-((3-(trifluoromethyl)phenyl)-sulfonyl)-3,4-dihydro-2H-benzo[b][1,4]oxazin-2-yl)propanoic acid], the EC50 in test [1] and in test [2] (setting [3]) was below 500 nM each time.

For `Cc1cccc(-c2ccc3c(c2)N(S(=O)(=O)c2cccc(C(F)(F)F)c2)C[C@H](CC(C)(C)C(=O)O)O3)c1Cl` [Compound 32AX, (S)-3-(6-(2-chloro-3-methyl-phenyl)-4-((3-(trifluoromethyl)-phenyl)sulfonyl)-3,4-dihydro-2H-benzo[b][1,4]oxazin-2-yl)-2,2-dimethylpropanoic acid], in test [1], the EC50 was below 500 nM and the “TR-FRET Assay Max Response” value is on record as “** (The symbol “**” indicates a value in the range of greater than 90 to 150)”. For the same molecule, in test [2] (2 μM ursolic acid), the EC50 is below 500 nM and the “Gal4-RORγ Assay Max Response” value is reported as “** (The symbol “**” indicates a value in the range of greater than 90 to 150)”.

`CN(C)c1cccc(-c2ccc3c(c2)N(S(=O)(=O)c2cccc(C(F)(F)F)c2)C[C@H](CCNC(=O)C(C)(C)O)O3)n1` [Compound 30A, (S)-N-(2-(6-(6-(dimethylamino)-pyridin-2-yl)-4-((3-(trifluoro-methyl)phenyl)sulfonyl)-3,4-dihydro-2H-benzo[b][1,4]-oxazin-2-yl)ethyl)-2-hydroxy-2-methylpropanamide]: in test [1], the EC50 was below 500 nM and the “TR-FRET Assay Max Response” value is given as “**** (The symbol “****” indicates a value greater than 200)”. In test [2] (setting [3]), the EC50 is below 500 nM and the “Gal4-RORγ Assay Max Response” value was “* (The symbol “*” indicates a value in the range of 25 to 90)”.

For the molecule `COc1cccc(-c2cc(F)c3c(c2)N(S(=O)(=O)c2cccc(C(F)(F)F)c2)C[C@H](CCC(=O)N2CCC(C(=O)O)CC2)O3)c1` [Compound 23H, (S)-1-(3-(8-fluoro-6-(3-methoxyphenyl)-4-((3-(trifluoromethyl)phenyl)sulfonyl)-3,4-dihydro-2H-benzo[b][1,4]oxazin-2-yl)propanoyl)piperidine-4-carboxylic acid], in test [1], the EC50 is below 500 nM and the “TR-FRET Assay Max Response” value was “**** (The symbol “****” indicates a value greater than 200)”. In addition, in test [2] (setting [3]), the EC50 is below 500 nM and the “Gal4-RORγ Assay Max Response” value was “** (The symbol “**” indicates a value in the range of greater than 90 to 150)”.

Consider `O=C1CC[C@@](C[C@H]2CN(S(=O)(=O)c3cccc(C(F)(F)F)c3)c3cc(-c4cc(F)ccc4F)ccc3O2)(C(=O)O)N1` [Compound 75, (R)-2-(((S)-6-(2,5-difluorophenyl)-4-((3-(trifluoromethyl)phenyl)sulfonyl)-3,4-dihydro-2H-benzo[b][1,4]oxazin-2-yl)methyl)-5-oxopyrrolidine-2-carboxylic acid], for which, in test [1], the EC50 is below 500 nM and the “TR-FRET Assay Max Response” value is reported as “** (The symbol “**” indicates a value in the range of greater than 90 to 150)”. In test [2] (2 μM ursolic acid), the EC50 is 5000 to 10000 nM and the “Gal4-RORγ Assay Max Response” value was “*** (The symbol “***” indicates a value in the range of greater than 150 to 200)”.
